# Columns and labels:
# [1] = biological target: human TLR9 (Homo sapiens (Human), UniProt Q9NR96); assay: TLR9 inhibition reporter assay (HEK-Blue cells, SEAP reporter, ODN2006 stimulation); details: read-out: TLR9 IC50, HEK-Blue cells overexpressing human TLR9, ODN2006 5 nM;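 also: compounds tested over 0.05 nM to 50 µM, 22 h incubation, inhibition taken as SEAP signal drop from agonist plus DMSO wells toward a known inhibitor control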
# [2] = biological target: human TLR7 (Homo sapiens (Human), UniProt Q9NYK1); assay: TLR7 inhibition reporter assay (HEK-Blue cells, SEAP reporter, gardiquimod stimulation); type: cell-based; details: HEK-Blue cells overexpressing human TLR7, gardiquimod 7.5 μM
# [3] = biological target: human TLR8 (Homo sapiens (Human), UniProt Q9NR97); assay: TLR8 inhibition reporter assay (HEK-Blue cells, SEAP reporter, R848 stimulation); details: read-out: TLR8 IC50, HEK-Blue cells overexpressing human TLR8, R848 15.9 μM;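 also: compounds tested from 0.05 nM to 50 µM, 22 h at 37 °C, SEAP measured with HEK-Blue Detection, inhibition relative to agonist plus DMSO versus a known inhibitor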
# human TLR8, sequence (Q9NR97 27-1041): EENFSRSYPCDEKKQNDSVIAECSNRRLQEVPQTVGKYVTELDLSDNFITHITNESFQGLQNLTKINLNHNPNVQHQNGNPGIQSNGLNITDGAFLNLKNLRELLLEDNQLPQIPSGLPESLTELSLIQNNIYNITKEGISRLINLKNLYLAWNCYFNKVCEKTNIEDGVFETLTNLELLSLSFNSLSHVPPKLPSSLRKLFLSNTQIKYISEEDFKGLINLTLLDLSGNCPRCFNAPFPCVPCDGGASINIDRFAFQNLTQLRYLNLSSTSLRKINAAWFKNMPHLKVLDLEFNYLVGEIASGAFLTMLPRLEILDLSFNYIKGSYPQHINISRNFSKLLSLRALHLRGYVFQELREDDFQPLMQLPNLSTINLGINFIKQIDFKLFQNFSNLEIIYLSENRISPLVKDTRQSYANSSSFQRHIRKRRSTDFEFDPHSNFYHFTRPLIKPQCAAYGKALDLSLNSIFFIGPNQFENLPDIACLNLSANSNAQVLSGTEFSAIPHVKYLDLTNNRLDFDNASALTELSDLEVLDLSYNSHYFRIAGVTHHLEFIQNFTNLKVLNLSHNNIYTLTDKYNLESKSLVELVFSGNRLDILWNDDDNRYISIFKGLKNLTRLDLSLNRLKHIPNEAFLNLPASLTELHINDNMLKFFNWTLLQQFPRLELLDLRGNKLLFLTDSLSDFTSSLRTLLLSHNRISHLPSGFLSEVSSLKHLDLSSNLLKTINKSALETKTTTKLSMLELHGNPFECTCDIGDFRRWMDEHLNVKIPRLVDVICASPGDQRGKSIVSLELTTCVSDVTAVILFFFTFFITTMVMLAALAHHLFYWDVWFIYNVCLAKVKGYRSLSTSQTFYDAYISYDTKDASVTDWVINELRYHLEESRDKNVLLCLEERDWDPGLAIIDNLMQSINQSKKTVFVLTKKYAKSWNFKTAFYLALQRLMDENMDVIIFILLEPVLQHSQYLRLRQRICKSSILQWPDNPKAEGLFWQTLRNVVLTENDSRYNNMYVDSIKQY
# human TLR7, sequence (Q9NYK1 27-1049): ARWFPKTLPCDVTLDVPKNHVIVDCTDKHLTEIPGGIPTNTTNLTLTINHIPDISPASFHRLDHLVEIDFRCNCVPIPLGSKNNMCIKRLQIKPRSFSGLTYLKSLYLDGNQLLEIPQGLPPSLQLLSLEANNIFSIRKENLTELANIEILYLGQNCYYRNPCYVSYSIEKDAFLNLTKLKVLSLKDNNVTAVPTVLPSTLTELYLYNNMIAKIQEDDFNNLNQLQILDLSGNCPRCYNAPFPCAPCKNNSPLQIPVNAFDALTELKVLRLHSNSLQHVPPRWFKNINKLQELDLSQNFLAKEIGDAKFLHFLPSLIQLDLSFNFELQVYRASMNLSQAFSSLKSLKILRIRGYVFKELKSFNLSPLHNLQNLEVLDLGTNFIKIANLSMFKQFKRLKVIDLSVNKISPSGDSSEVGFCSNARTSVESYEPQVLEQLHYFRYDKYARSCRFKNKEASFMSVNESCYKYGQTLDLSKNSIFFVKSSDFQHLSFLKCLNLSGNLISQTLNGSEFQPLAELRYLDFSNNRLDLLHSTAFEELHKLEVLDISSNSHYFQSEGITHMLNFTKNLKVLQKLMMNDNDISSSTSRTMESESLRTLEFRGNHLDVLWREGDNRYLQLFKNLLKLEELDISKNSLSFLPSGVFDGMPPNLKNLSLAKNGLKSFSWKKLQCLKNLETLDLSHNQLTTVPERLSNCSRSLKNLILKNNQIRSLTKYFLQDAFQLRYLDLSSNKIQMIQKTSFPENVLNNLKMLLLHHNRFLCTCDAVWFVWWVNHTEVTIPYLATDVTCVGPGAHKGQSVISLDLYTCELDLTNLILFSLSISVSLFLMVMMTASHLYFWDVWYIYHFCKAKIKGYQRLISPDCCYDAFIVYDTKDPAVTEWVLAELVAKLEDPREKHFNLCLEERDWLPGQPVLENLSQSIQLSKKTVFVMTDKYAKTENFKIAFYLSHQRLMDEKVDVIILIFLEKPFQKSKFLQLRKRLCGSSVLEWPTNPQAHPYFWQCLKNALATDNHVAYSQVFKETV
# human TLR9, sequence (Q9NR96 26-1032): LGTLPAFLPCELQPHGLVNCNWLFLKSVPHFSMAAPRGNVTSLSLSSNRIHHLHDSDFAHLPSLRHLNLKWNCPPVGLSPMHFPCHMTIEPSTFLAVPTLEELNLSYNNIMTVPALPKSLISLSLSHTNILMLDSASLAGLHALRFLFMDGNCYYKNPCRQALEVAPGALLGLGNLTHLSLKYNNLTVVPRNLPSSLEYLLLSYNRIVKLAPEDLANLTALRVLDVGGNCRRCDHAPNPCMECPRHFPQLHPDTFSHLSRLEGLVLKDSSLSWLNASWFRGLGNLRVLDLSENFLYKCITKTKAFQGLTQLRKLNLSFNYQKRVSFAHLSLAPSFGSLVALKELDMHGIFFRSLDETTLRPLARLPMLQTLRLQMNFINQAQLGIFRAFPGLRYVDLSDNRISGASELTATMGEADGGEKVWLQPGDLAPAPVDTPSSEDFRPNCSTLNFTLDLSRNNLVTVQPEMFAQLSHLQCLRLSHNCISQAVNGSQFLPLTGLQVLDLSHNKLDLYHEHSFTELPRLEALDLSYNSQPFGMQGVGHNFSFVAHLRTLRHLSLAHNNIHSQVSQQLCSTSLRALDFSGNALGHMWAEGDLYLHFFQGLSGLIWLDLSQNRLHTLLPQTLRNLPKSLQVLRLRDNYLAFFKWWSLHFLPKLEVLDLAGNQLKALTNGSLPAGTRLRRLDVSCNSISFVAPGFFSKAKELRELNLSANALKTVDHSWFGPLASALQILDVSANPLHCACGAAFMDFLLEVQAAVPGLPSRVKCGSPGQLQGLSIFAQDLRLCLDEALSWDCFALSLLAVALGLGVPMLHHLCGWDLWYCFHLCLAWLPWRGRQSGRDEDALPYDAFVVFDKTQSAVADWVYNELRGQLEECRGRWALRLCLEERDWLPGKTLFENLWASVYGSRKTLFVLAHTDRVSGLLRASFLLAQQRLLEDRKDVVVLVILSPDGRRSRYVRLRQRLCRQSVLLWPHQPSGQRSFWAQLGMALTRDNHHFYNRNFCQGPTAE
SMILES,IC50 [1] [nM],IC50 [2] [nM],IC50 [3] [nM]
"COCCOCCN1CCC(c2ccc3[nH]c(-c4cc(C)nc(C)c4)c(C(C)C)c3c2)CC1 [Example 324, 2-(2,6-dimethylpyridin-4-yl)-3-isopropyl-5-(1-(2-(2-methoxyethoxy)ethyl)piperidin-4-yl)-1H-indole]",413,7.4,4.4
"COCCN1CCC(c2ccc3[nH]c(-c4cc(C)nc(C)c4)c(C(C)C)c3c2)CC1 [Example 325, 2-(2,6-dimethylpyridin-4-yl)-3-isopropyl-5-(1-(2-methoxyethyl)piperidin-4-yl)-1H-indole]",343,3.1,3.8
"Cc1cc(-c2[nH]c3ccc(C4CCN(C5CCCC5)CC4)cc3c2C(C)C)cc(C)n1 [Example 326, 5-(1-cyclopentylpiperidin-4-yl)-2-(2,6-dimethylpyridin-4-yl)-3-isopropyl-1H-indole]",1120,16.1,29.2
"Cc1cc(-c2[nH]c3ccc(C4CCN(CC(F)F)CC4)cc3c2C(C)C)cc(C)n1 [Example 327, 5-(1-(2,2-difluoroethyl)piperidin-4-yl)-2-(2,6-dimethylpyridin-4-yl)-3-isopropyl-1H-indole]",3720,15.6,52.9
"Cc1cc(-c2[nH]c3ccc(C4CCN(CC5CCCCC5)CC4)cc3c2C(C)C)cc(C)n1 [Example 328, 5-(1-(cyclohexylmethyl)piperidin-4-yl)-2-(2,6-dimethylpyridin-4-yl)-3-isopropyl-1H-indole]",7220,49.8,77.1
"Cc1cc(-c2[nH]c3ccc(C4CCN(CCO)CC4)cc3c2C(C)C)cc(C)n1 [Example 329, 2-(4-(2-(2,6-dimethylpyridin-4-yl)-3-isopropyl-1H-indol-5-yl)piperidin-1-yl)ethan-1-ol]",437,2.1,2.8
"COCCCN1CCC(c2ccc3[nH]c(-c4cc(C)nc(C)c4)c(C(C)C)c3c2)CC1 [Example 330, 2-(2,6-dimethylpyridin-4-yl)-3-isopropyl-5-(1-(3-methoxypropyl)piperidin-4-yl)-1H-indole]",999,3.7,4.2
"Cc1cc(-c2[nH]c3ccc(C4CCN(CC(C)O)CC4)cc3c2C(C)C)cc(C)n1 (stereo not drawn) [Example 331, 1-(4-(2-(2,6-dimethylpyridin-4-yl)-3-isopropyl-1H-indol-5-yl)piperidin-1-yl)propan-2-ol]",566,2.4,3.5
"COC(C)CN1CCC(c2ccc3[nH]c(-c4cc(C)nc(C)c4)c(C(C)C)c3c2)CC1 (stereo not drawn) [Example 332, 2-(2,6-dimethylpyridin-4-yl)-3-isopropyl-5-(1-(2-methoxypropyl)piperidin-4-yl)-1H-indole]",396,5.2,4.5

# The next lines start with the values.
IC50 [1] [nM],IC50 [2] [nM],IC50 [3] [nM],SMILES
364,0.8,1.4,"Cc1cc(-c2[nH]c3ccc(C4CCN(CC5COC5)CC4)cc3c2C(C)C)cc(C)n1 [Example 333, 2-(2,6-dimethylpyridin-4-yl)-3-isopropyl-5-(1-(oxetan-3-ylmethyl)piperidin-4-yl)-1H-indole]"
474,2.3,7.6,"Cc1cc(-c2[nH]c3ccc(C4CCN(C(=O)CNC5CCC5)CC4)cc3c2C(C)C)cc(C)n1 [Example 334, 2-(cyclobutylamino)-1-(4-(2-(2,6-dimethylpyridin-4-yl)-3-isopropyl-1H-indol-5-yl)piperidin-1-yl)ethan-1-one]"
272,1.5,9.7,"Cc1cc(-c2[nH]c3ccc(C4CCN(C(=O)CNCCO)CC4)cc3c2C(C)C)cc(C)n1 [Example 336, 1-(4-(2-(2,6-dimethylpyridin-4-yl)-3-isopropyl-1H-indol-5-yl)piperidin-1-yl)-2-((2-hydroxyethyl)amino)ethan-1-one]"
467,6.7,18.3,"Cc1cc(-c2[nH]c3ccc(C4CCN(C(=O)CNCC(C)(C)C)CC4)cc3c2C(C)C)cc(C)n1 [Example 337, 1-(4-(2-(2,6-dimethylpyridin-4-yl)-3-isopropyl-1H-indol-5-yl)piperidin-1-yl)-2-(neopentylamino)ethan-1-one]"
553,5.8,23.5,"Cc1cc(-c2[nH]c3ccc(C4CCN(C(=O)CNCC(C)C)CC4)cc3c2C(C)C)cc(C)n1 [Example 338, 1-(4-(2-(2,6-dimethylpyridin-4-yl)-3-isopropyl-1H-indol-5-yl)piperidin-1-yl)-2-(isobutylamino)ethan-1-one]"
869,2.8,13.3,"Cc1cc(-c2[nH]c3ccc(C4CCN(C(=O)CNCC5CC5)CC4)cc3c2C(C)C)cc(C)n1 [Example 339, 2-((cyclopropylmethyl)amino)-1-(4-(2-(2,6-dimethylpyridin-4-yl)-3-isopropyl-1H-indol-5-yl)piperidin-1-yl)ethan-1-one]"
36000,14.7,104,"Cc1cc(-c2[nH]c3ccc(C4CCN(C(=O)CN5CC(F)(F)C5)CC4)cc3c2C(C)C)cc(C)n1 [Example 340, 2-(3,3-difluoroazetidin-1-yl)-1-(4-(2-(2,6-dimethylpyridin-4-yl)-3-isopropyl-1H-indol-5-yl)piperidin-1-yl)ethan-1-one]"
25400,22.7,211,"Cc1cc(-c2[nH]c3ccc(C4CCN(C(=O)CN5CCC(F)(F)C5)CC4)cc3c2C(C)C)cc(C)n1 [Example 341, 2-(3,3-difluoropyrrolidin-1-yl)-1-(4-(2-(2,6-dimethylpyridin-4-yl)-3-isopropyl-1H-indol-5-yl)piperidin-1-yl)ethan-1-one]"
656,26.2,67.1,"Cc1cc(-c2[nH]c3ccc(C4CCN(C(=O)CNC56CC7CC(CC(C7)C5)C6)CC4)cc3c2C(C)C)cc(C)n1 [Example 342, 2-(adamantan-1-ylamino)-1-(4-(2-(2,6-dimethylpyridin-4-yl)-3-isopropyl-1H-indol-5-yl)piperidin-1-yl)ethan-1-one]"
685,9.8,20.3,"Cc1cc(-c2[nH]c3ccc(C4CCN(C(=O)CNC56CC7CC(CC(O)(C7)C5)C6)CC4)cc3c2C(C)C)cc(C)n1 [Example 343, 1-(4-(2-(2,6-dimethylpyridin-4-yl)-3-isopropyl-1H-indol-5-yl)piperidin-1-yl)-2-((3-hydroxyadamantan-1-yl)amino)ethan-1-one]"
485,2.5,8.4,"Cc1cc(-c2[nH]c3ccc(C4CCN(C(=O)CNC(C)C)CC4)cc3c2C(C)C)cc(C)n1 [Example 344, 1-(4-(2-(2,6-dimethylpyridin-4-yl)-3-isopropyl-1H-indol-5-yl)piperidin-1-yl)-2-(isopropylamino)ethan-1-one]"
544,12.3,34,"CCC(CC)NCC(=O)N1CCC(c2ccc3[nH]c(-c4cc(C)nc(C)c4)c(C(C)C)c3c2)CC1 [Example 345, 1-(4-(2-(2,6-dimethylpyridin-4-yl)-3-isopropyl-1H-indol-5-yl)piperidin-1-yl)-2-(pentan-3-ylamino)ethan-1-one]"
